# Patent publication US20060024337A1, “Process for dissolving lipophilic compounds in aqueous solution with amphiphilic block copolymers, and cosmetic composition” (priority 2002, published 2006)
# How the values were obtained:
# [1] = Dissolving DHEA in water with amphiphilic block copolymers (film hydration, centrifugation, HPLC assay of supernatant); assay type: physicochemical; conditions: 25 °C, thermodynamic from solid, no polymer ("natural" solubility)
# Experimental: (§1) The measurement is performed by UV spectrometry or HPLC on an aqueous solution, prepared beforehand, of from 20 to 80° C. for 2 hours, followed by cooling to 25° C. The assay is performed 24 hours after this preparation on the supernatant obtained after centrifuging the suspension to remove all crystals, or on the pellet in the case of solubilization of oily molecules, the centrifugation resulting in creaming of the portion that is not encapsulated in the micelles.
# (§2) The solubility gain is calculated relative to the “natural” solubility of the lipophilic compound in water.
# [2] = Dissolving Parsol 1789 in water with amphiphilic block copolymers (film hydration, centrifugation, HPLC assay of supernatant); assay type: physicochemical; conditions: 25 °C, thermodynamic from solid, no polymer ("natural" solubility)
# Experimental: as §1
# The supernatant, which should not contain any crystals that may be identified using an optical microscope in polarized light, is taken up and then assayed by HPLC.
# as §2
Structure (SMILES),solubility at 24 h [1] [µg/mL],solubility at 24 h [2] [µg/mL]
"C[C@]12CC[C@H](O)CC1=CC[C@@H]1[C@@H]2CC[C@]2(C)C(=O)CC[C@@H]12 [DHEA, dehydroepiandrosterone]",1,–
"COc1ccc(C(=O)CC(=O)c2ccc(C(C)(C)C)cc2)cc1 [Parsol 1789, 4-(tert-butyl)-4′-methoxydibenzoylmethane]",–,1
